Counter-ions that a name gives are not always drawn.
Tests used:
[1] = Pharmacokinetics of IM and CGP74588 in patient plasma; format: in vivo, human; settings: for increase of AUC (0–24 h) at D14 versus D10 / increase of Cmax at D14 versus D10: after IL-2 co-administration D10-D14, IM 400 mg/day; for AUC(0-inf): human, plasma
[2] = test system: GIST with KIT exon 11 mutations; settings: cited from earlier work
[3] = test system: lymphocytes, neutrophils and platelets; assay: Blood cell counts during treatment; format: in vivo, human; settings: between D1 and D10, IM alone

| SMILES | accumulation ratio (D10 to D1 trough concentration ratio) ([1]; IM 400 mg/day, mean ± SD) | increase of AUC (0–24 h) at D14 versus D10 [1] [%] | increase of Cmax at D14 versus D10 [1] [%] | AUC (0–24h) ([1]; patient #8, IL-2 dose level III, no toxicity) [µg·h/mL] | AUC (0–24h) ([1]; patient #10, IL-2 dose level III, grade 3 systemic capillary leak syndrome) [µg·h/mL] | median OS [2] [mo] | median time to progression [2] [mo] | lymphocyte, neutrophil or platelet counts [3] | AUC(0-inf) ([1]; im, 400 mg/day) [ng·h/mL] | AUC(0-inf) ([1]; oral, 400 mg) [ng·h/mL] |
| --- | --- | --- | --- | --- | --- | --- | --- | --- | --- | --- |
| Cc1ccc(NC(=O)c2ccc(CN3CCNCC3)cc2)cc1Nc1nccc(-c2cccnc2)n1 [CGP74588, N-desmethyl-imatinib] | 1.93 ± 0.69 | 61 | 49 | 13.4 | 25.1 |  |  |  |  |  |
| Cc1ccc(NC(=O)c2ccc(CN3CCN(C)CC3)cc2)cc1Nc1nccc(-c2cccnc2)n1 [IM, imatinib mesylate] |  | 61 | 49 |  |  | 60 | 27.2 | no significant modifications | 64100 | 39700 |

From article PMC3601177 (Oncoimmunology, 2013)
